Measured values as given in publication PMC2580772, “The dual transcriptional regulator CysR in Corynebacterium glutamicum ATCC 13032 controls a subset of genes of the McbR regulon in response to the availability of sulphide acceptor molecules” (BMC Genomics, 2008).

Target: T1, CysR (Corynebacterium glutamicum, UniProt Q8NU28)
T1 construct: gene Cgl0121; expressed in E. coli ER2566 from pTYB1 (pCR050)
T1 sequence (Q8NU28 1-381): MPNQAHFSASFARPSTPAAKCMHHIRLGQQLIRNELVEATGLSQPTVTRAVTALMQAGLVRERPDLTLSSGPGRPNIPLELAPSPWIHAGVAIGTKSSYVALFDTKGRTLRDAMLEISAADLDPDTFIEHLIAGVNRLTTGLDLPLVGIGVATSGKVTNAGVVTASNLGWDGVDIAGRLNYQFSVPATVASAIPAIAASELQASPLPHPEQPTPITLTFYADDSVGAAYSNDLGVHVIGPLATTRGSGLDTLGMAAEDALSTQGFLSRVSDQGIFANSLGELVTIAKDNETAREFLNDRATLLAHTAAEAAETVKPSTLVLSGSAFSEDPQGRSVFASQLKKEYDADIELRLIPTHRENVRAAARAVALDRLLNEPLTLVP
Test: EMSA, effector-dependent DNA binding
Conditions: 10 mM effector; Cy3-labelled 523 bp cysI-fpr2 DNA; 1,000 times molar excess of protein; pH 7.5; room temperature; co-activator

Structure (SMILES)	EMSA, effector-dependent DNA binding
CC(=O)OC[C@H](N)C(=O)O [OAS, O-acetyl-L-serine]	CysR can only bind if either OAS or OAH is added to the assay
CC(=O)OCC[C@H](N)C(=O)O [OAH, O-acetyl-L-homoserine]	CysR can only bind if either OAS or OAH is added to the assay
